IC50 data for ten molecules are collected here from patent US12018011B2, “Macrocyclic compounds and compositions, and methods of preparing and using the same” (Kura Oncology, Inc., priority 2021, dated 2024).

The target in this experiment is T1, Recombinant human farnesyl transferase (FTase) (Homo sapiens, UniProt P49356).
T1 construct: purchased Crelux (Martinsried, Germany)
The experiment in a line: FTase fluorescence assay (farnesylation of dansyl-GCVLS peptide). It is filed as biochemical. The settings on record: recombinant human FTase 2.5 nM, Dansyl-GCVLS 85 nM, FPP 30 nM, 30° C., 50 minutes. The source says: T24/83 cell line was purchased from the European Collection of Authenticated Cell Cultures (Salisbury, UK). Recombinant human farnesyl transferase (FTase) and geranylgeranyl transferase type-1 (GGTase) were obtained from Crelux (Martinsried, Germany). Dansyl labelled GCVLS peptide was purchased from Bachem (Torrance, CA), and Dansyl labelled GCVLL peptide was purchased from Bio Synthesis (Lewisville, TX). Farnesyl Pyrophosphate (FPP) and Geranylgeranyl pyrophosphate (GGPP) were purchased from Cayman (Ann Arbor, MI).
Specific biochemical activity of the compounds disclosed herein as FTase inhibitors was determined by measuring the ability of the compounds to block the farnesylation by recombinant FTase of fluorescent (i.e., dansyl-labeled) test substrates derived from the CAAX box of farnesylated proteins, such as the peptide GCVLS.
The IC50 value of the compounds disclosed herein as inhibitors of Ftase and/or GGTase, was determined by measuring the concentration (provided in nM) necessary to achieve inhibition of enzyme activity by 50% (IC50). […] Compounds having a low IC50 value against FTase, for example an IC50 (FTase)<100 nM, such as an IC50 (FTase)<10 nM, are preferred. Compounds having a low IC50 value against FTase and a high IC50 value against GGTase, for example an IC50 (FTase)<100 nM, such as an IC50 (FTase)<10 nM, and an IC50 (GGTase)>100 nM, are potent and selective inhibitors of FTase, and are particularly preferred.
The inhibition activities of the compounds disclosed herein against Ftase and GGTase were measured in the respective fluorescence assays as follows:
For the FTase assay, recombinant human FTase (2.5 nM), Dansyl labelled GCVLS peptide (85 nM), FPP (30 nM) and inhibitor were mixed in assay buffer (50 mM Tris, pH 7.5, 10 mM magnesium chloride, 10 μM zinc chloride, 0.08% CHAPS, 5 mM dithiothreitol) and incubated in a total volume of 20 μL at 30° C. for 50 minutes.
For both the FTase assay and GGTase assay, fluorescence intensity was detected (excitation at 340 nm and emission at 486 nm) using EnVision (PerkinElmer; Waltham, MA), IC50 determinations were performed using a sigmoidal dose-response model with Xlfit software (IDBS, Inc.; Boston, MA), and tipifarnib was used as a positive control. All the assay plates for each assay passed the QC criteria (S/B, Z factor).

For orientation: IC50 means the concentration needed to halve the response being measured. Turning to `[2H]C([2H])([2H])n1c(=O)cc2c3cc(ccc31)[C@](O)(c1cncn1C)c1ccc(C#N)c(c1)COc1cccc-2c1` (racemic) [(R)-55, (R)-3-hydroxy-21-(methyl-d3)-3-(1-methyl-1H-imidazol-5-yl)-2^2-oxo-2^1,2^2-dihydro-6-oxa-2(4,6)-quinolina-1,4(1,3)-dibenzenacyclohexaphane-4^4-carbonitrile], the IC50 was more than 100 nM.
In the case of `[2H]C([2H])([2H])n1c(=O)cc2c3cc(ccc31)[C@](N)(c1cncn1C)c1ccc(C#N)c(c1)COc1cccc-2c1` (racemic) [(R)-56, (R)-3-amino-2^1-(methyl-d3)-3-(1-methyl-1H-imidazol-5-yl)-2^2-oxo-2^1,2^2-dihydro-6-oxa-2(4,6)-quinolina-1,4(1,3)-dibenzenacyclohexaphane-4^4-carbonitrile], the IC50 is more than 100 nM.
As for `Cn1cncc1[C@]1(N)c2ccc(C#N)c(c2)COc2cccc(c2)-c2cc(=O)n(C3CC3)c3ccc1cc23` (racemic) [(R)-57, (R)-3-amino-21-cyclopropyl-3-(1-methyl-1H-imidazol-5-yl)-2^2-oxo-2^1,2^2-dihydro-6-oxa-2(4,6)-quinolina-1,4(1,3)-dibenzenacyclohexaphane-4^4-carbonitrile], the IC50 was more than 100 nM.
Regarding `Cn1cncc1[C@]1(N)c2ccc(C#N)c(c2)COc2cccc(c2)-c2cc(C#N)nc3ccc1cc23` (racemic) [(R)-58, (R)-3-amino-3-(1-methyl-1H-imidazol-5-yl)-6-oxa-2(4,6)-quinolina-1,4(1,3)-dibenzenacyclohexaphane-2^2,4^4-dicarbonitrile], the 50% inhibitory concentration (IC50) lay in the range of 10 to 100 nM.
On to `Cn1cncc1[C@]1(N)c2ccc(C#N)c(c2)COc2cccc(c2)-c2cc(N3CCOCC3)nc3ccc1cc23` (racemic) [(R)-66, (R)-3-amino-3-(1-methyl-1H-imidazol-5-yl)-2^2-morpholino-6-oxa-2(4,6)-quinolina-1,4(1,3)-dibenzenacyclohexaphane-4^4-carbonitrile], for which the IC50 is not above 10 nM.
Turning to `[2H]C([2H])([2H])n1cncc1[C@]1(N)c2ccc(C#N)c(c2)COc2cccc(c2)-c2cc(C#N)nc3ccc1cc23` (racemic) [(R)-70, (R)-3-amino-3-(1-(methyl-d3)-1H-imidazol-5-yl)-6-oxa-2(4,6)-quinolina-1,4(1,3)-dibenzenacyclohexaphane-2^2,4^4-dicarbonitrile], the IC50 lay in the range of 10 to 100 nM.
The same measure for `Cn1cncc1[C@]1(O)c2ccc(C#N)c(c2)CCc2cccc(c2)-c2cc(=O)n(C)c3ccc1cc23` (racemic) [(S)-6, (S)-3-hydroxy-2^1-methyl-3-(1-methyl-1H-imidazol-5-yl)-2^2-oxo-2^1,2^2-dihydro-2(4,6)-quinolina-1,4(1,3)-dibenzenacyclohexaphane-4^4-carbonitrile]: more than 100 nM.
The figure for `Cn1cncc1[C@]1(N)c2ccc(C#N)c(c2)CCc2cccc(c2)-c2cc(=O)n(C)c3ccc1cc23` (racemic) [(S)-7, (S)-3-amino-2^1-methyl-3-(1-methyl-1H-imidazol-5-yl)-22-oxo-2^1,2^2-dihydro-2(4,6)-quinolina-1,4(1,3)-dibenzenacyclohexaphane-4^4-carbonitrile] is more than 100 nM; for `[2H]C([2H])([2H])n1c(=O)cc2c3cc(ccc31)[C@](N)(c1cncn1C)c1ccc(C#N)c(c1)CCc1cccc-2c1` (racemic) [(S)-8, (S)-3-amino-2^1-(methyl-d3)-3-(1-methyl-1H-imidazol-5-yl)-22-oxo-2^1,2^2-dihydro-2(4,6)-quinolina-1,4(1,3)-dibenzenacyclohexaphane-4^4-carbonitrile] it is more than 100 nM.
The figure for `Cn1cncc1[C@]1(N)c2ccc(C#N)c(c2)CCc2cccc(c2)-c2cc(C#N)nc3ccc1cc23` (racemic) [(S)-9, (S)-3-amino-3-(1-methyl-1H-imidazol-5-yl)-2(4,6)-quinolina-1,4(1,3)-dibenzenacyclohexaphane-2^2,4^4-dicarbonitrile] is more than 100 nM.
